Values of other authors, collected in patent US20260021122A1, “CANNABINOIDS AND USES THEREOF IN TREATMENT OF A DISEASE” (TECHNION RESEARCH & DEVELOPMENT FOUNDATION LIMITED, priority 2022, published 2026).

Assays:
[1] = test system: triple-negative breast cancer; details: conditioned media from CBD-treated cancer cells, literature; cited from earlier work
[2] = test system: MDSCs; details: one study, literature; cited from earlier work

Row | Structure (SMILES) | levels of CCL3 [1] | levels of Granulocyte-macrophage (GM)-CSF [1] | antitumor effects [2] | suppressive immune cell population of MDSCs [2]
1 | C=C(C)[C@@H]1CCC(C)=C[C@H]1c1c(O)cc(CCCCC)cc1O [CBD, Cannabidiol] | lowered the levels | lowered the levels | – | –
2 | CCCCC/C=C\C/C=C\C/C=C\C/C=C\CCCC(=O)OC(CO)CO [2-AG, 2-arachidonoylglycerol] | – | – | exhibits direct antitumor effects | increasing the suppressive immune cell population of MDSCs
